Structures are written as SMILES.

The test addresses GPR174-v38 (Homo sapiens, UniProt Q9BXC1). The test is described as follows: Inhibition of PS-induced GPR174 Gs signaling (GloSensor), HEK293 stably transfected with GPR174-v38. The conditions noted are these: PS liposomes 1 μM; for IC50: GPR174-v38 (compound 59: data not shown), read-out: apparent IC50, inhibition of PS-induced GPR174 Gs signaling. The class given is cell-based.

Turning to `O=[N+]([O-])c1cc(F)c(N2CCCCC2)cc1N1CCN(S(=O)(=O)c2ccccc2)CC1` [compound 11], the “PS-mediated GPR174 Gs signaling (FIGS. 47B-47F)” value (“PS-mediated GPR174 Gs signaling” below) is given as “inhibited” and the IC50 – broadly, the point on the concentration scale where inhibition reaches its midpoint – was ~100 nM.

With `O=C(c1ccccc1)N1CCN(c2cc(N3CCCCC3)c(F)cc2[N+](=O)[O-])CC1` [compound 6], the “PS-mediated GPR174 Gs signaling” value is “inhibited” and the IC50 was ~100 nM.

As to `CCOc1ccc(C2C3=C(CCCC3=O)NC3=C2C(=O)c2ccccc23)cc1` (centres unmarked) [compound 23], the “PS-mediated GPR174 Gs signaling” value is listed as “inhibited” and the IC50 is ~150 nM.

With `S=C(NCc1ccco1)Nc1ccc(I)cc1` [compound 59], the IC50 was ~10000 nM.

For the compound `CCOc1ccc(C2C3=C(CCCC3=O)NC3=C2C(=O)c2ccccc23)cc1OCC` (centres unmarked) [compound 30], the “PS-mediated GPR174 Gs signaling” value is given as “inhibited” and the IC50 was ~1300 nM.

`Cc1ccccc1Nc1nnc(-c2ccc(C)c(S(N)(=O)=O)c2)c2ccccc12` [compound 20]: the “PS-mediated GPR174 Gs signaling” value is “inhibited” and the IC50 is ~3000 nM.

The values above are taken from patent publication US20200345725A1, “Methods and Compositions for Treating Cancer” (Omeros Corporation, priority 2019, published 2020).
